Format: physicochemical
Procedure: The degradation products of Example 1, recovered after three hours of hydrolysis, were evaluated as antioxidants and thermal stabilizers for PVC, low density polyethylene (LDPE), and polyvinyl alcohol (PVA) to evaluate the anti-oxidation efficiency using thermal analysis techniques (DSC, TGA, and DTG). The thermooxidative enthalpy change from DSC curves (e.g. FIGS. 1-3) and the % of HCl loss as a function of temperature represent the stability of polyethylene and PVC respectively.
The mechanism of stabilizing PVC is based on capturing the evolved HCl from dehydrochlorination by the metal ions and the transition metal, accordingly deactivating the catalytic role of HCl in the thermal decomposition.

- Stability compared with the PVC control polymer: more stable than the PVC control polymer
Substance: fulvic acid
